Tests used:
A2780 = experiment: Tumour cell proliferation/vitality assay (Alamar Blue), A2780; assay type: cell-based; conditions: Homo sapiens; vitality assay, A2780 cells
Experimental: (§1) In the present experiment description, the inhibition of tumour cell proliferation/tumour cell vitality by active compounds is described.
(§2) The cells are sown in a suitable cell density in microtitre plates (96-well format) and the test substances are added in the form of a concentration series. After four further days of cultivation in serum-containing medium, the tumour cell proliferation/tumour cell vitality can be determined by means of an Alamar Blue test system.
(§3) The cells are cultivated in medium. At intervals of several days, the cells are detached from the culture dishes with the aid of trypsin solution and sown in suitable dilution in fresh medium. The cells are cultivated at 37° Celsius and 10% CO2.
(§4) A defined number of cells (for example 2000 cells) per culture/well in a volume of 180 μl of culture medium are sown in microtitre plates (96 well cell-culture plates) using a multichannel pipette. The cells are subsequently cultivated in a CO2 incubator (37° C. and 10% CO2).
(§5) The test substances are dissolved, for example, in DMSO and subsequently employed in corresponding concentration (if desired in a dilution series) in the cell culture medium. The dilution steps can be adapted depending on the efficiency of the active compounds and the desired spread of the concentrations. Cell culture medium is added to the test substances in corresponding concentrations. The addition of the test substances to the cells can take place on the same day as the sowing of the cells. To this end, in each case 20 μl of substance solution from the predilution plate are added to the cultures/wells. The cells are cultivated for a further 4 days at 37° Celsius and 10% CO2.
(§6) In each case, 20 μl of Alamar Blue reagent are added per well, and the microtitre plates are incubated, for example, for a further seven hours in a CO2 incubator (at 37° C. and 10% CO2). The plates are measured in a reader with a fluorescence filter at a wavelength of 540 nm. The plates can be shaken gently immediately before the measurement.
(§7) The absorbance value of the medium control (no cells and test substances used) is subtracted from all other absorbance values. The controls (cells without test substance) are set equal to 100 percent, and all other absorbance values are set in relation thereto (for example in % of control): […]

HCT 116 = experiment: Tumour cell proliferation/vitality assay (Alamar Blue), HCT 116; assay type: cell-based; conditions: Homo sapiens; vitality assay, HCT 116 cells
Experimental: as §1, §2, §3, §4, §5, §6, §7

TGF-beta = experiment: Inhibition of TGF-beta-mediated effects (elimination of TGF-beta-mediated growth inhibition, Mv1Lu cells, Crystal Violet); assay type: cell-based
Experimental: In-Vitro (Enzyme) Assay for Determination of the Efficacy of the Inhibitors of the Inhibition of TGF-Beta-Mediated Effects
As an example, the ability of the inhibitors to eliminate TGF-beta-mediated growth inhibition is tested.
Cells of the lung epithelial cell line Mv1Lu are sown in a defined cell density in a 96-well microtitre plate and cultivated overnight under standard conditions. Next day, the medium is replaced by medium which comprises 0.5% of FCS and 1 ng/ml of TGF-beta, and the test substances are added in defined concentrations, generally in the form of dilution series with 5-fold steps. The concentration of the solvent DMSO is constant at 0.5%. After a further two days, Crystal Violet staining of the cells is carried out. After extraction of the Crystal Violet from the fixed cells, the absorption is measured spectrophotometrically at 550 nm. It can be used as a quantitative measure of the adherent cells present and thus of the cell proliferation during the culture.

IKKε = IKKε (Homo sapiens (Human), UniProt Q14164); experiment: IKKε kinase test (384-well flashplate); assay type: biochemical; conditions: read-out: IC50 [IKKepsilon]
Chain of IKKε (Q14164 whole entry, species assumed): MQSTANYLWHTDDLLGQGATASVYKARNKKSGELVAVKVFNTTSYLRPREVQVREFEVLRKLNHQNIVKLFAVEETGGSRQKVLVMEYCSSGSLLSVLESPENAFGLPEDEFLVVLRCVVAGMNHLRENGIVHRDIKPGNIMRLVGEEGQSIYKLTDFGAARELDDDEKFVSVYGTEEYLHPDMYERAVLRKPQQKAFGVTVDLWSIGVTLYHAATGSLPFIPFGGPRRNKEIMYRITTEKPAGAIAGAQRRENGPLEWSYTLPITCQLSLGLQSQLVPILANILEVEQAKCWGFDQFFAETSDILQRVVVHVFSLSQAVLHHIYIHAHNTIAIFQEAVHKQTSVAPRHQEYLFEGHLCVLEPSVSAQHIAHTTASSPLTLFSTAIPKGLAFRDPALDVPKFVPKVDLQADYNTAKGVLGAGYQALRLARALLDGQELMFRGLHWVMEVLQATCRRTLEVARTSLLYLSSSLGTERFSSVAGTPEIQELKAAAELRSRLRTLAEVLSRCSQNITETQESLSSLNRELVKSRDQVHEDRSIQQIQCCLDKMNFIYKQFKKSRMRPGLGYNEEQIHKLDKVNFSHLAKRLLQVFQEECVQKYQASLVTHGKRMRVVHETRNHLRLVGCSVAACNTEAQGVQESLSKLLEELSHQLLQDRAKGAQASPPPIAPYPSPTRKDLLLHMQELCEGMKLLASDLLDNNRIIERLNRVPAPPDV
Experimental: (§8) The kinase assay is performed as 384-well flashplate assay.
1 nM IKKε, 800 nM biotinylated IκBα(19-42) peptide (biotin-C6-C6-[…]) and 10 μM ATP (with 0.3 μCi of ^33P-ATP/well) are incubated in a total volume of 50 μl (10 mM MOPS, 10 mM magnesium acetate, 0.1 mM EGTA, 1 mM dithiothreitol, 0.02% of Brij35, 0.1% of BSA, 0.1% of BioStab, pH 7.5) with or without test substance at 30° C. for 120 min. The reaction is stopped using 25 μl of 200 mM EDTA solution, filtered off with suction after 30 min at room temperature, and the wells are washed 3 times with 100 μl of 0.9% NaCl solution. The non-specific proportion of the kinase reaction (blank) is determined using 3 μM EMD 1126352 (BX-795). Radioactivity is measured in the Topcount. IC50 values are calculated using RS1.

[1] = target: TANK binding kinase (TBK1) (Homo sapiens (Human), UniProt Q9UHD2); experiment: TBK1 kinase test (384-well flashplate); assay type: biochemical
Chain of TANK binding kinase (TBK1) (Q9UHD2 whole entry, species assumed): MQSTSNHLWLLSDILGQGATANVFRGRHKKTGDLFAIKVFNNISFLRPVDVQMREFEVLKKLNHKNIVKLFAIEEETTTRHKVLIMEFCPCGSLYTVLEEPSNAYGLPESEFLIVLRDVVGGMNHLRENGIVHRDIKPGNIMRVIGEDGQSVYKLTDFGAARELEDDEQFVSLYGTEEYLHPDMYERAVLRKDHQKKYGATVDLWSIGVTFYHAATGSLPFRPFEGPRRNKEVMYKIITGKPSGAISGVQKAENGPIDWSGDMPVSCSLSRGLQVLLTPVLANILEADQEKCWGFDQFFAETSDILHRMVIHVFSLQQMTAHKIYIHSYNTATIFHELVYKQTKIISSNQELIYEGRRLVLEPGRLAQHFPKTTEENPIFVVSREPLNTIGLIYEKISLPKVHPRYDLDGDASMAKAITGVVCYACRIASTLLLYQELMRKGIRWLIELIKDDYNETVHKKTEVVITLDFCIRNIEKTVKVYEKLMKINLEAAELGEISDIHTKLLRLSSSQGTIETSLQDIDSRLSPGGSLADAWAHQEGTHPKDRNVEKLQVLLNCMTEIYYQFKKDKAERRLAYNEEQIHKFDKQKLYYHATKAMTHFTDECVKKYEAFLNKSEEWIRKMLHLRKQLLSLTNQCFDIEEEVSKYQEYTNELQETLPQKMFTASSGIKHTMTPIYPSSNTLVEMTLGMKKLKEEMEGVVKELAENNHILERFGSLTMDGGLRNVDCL
Experimental: as §8
0.6 nM TANK binding kinase (TBK1), 800 nM biotinylated MELK-derived peptide (biotin-Ah-Ah-[…]) and 10 μM ATP (with 0.25 μCi of ^33P-ATP/well) are incubated in a total volume of 50 μl (10 mM MOPS, 10 mM magnesium acetate, 0.1 mM EGTA, 1 mM DTT, 0.02% of Brij35, 0.1% of BSA, pH 7.5) with or without test substance at 30° C. for 120 min. The reaction is stopped using 25 μl of 200 mM EDTA solution, filtered off with suction after 30 min at room temperature, and the wells are washed 3 times with 100 μl of 0.9% NaCl solution. The non-specific proportion of the kinase reaction (blank) is determined using 100 nM staurosporine. Radioactivity is measured in the Topcount. IC50 values are calculated using RS1.

PDK1 = PDK1 (Homo sapiens (Human), UniProt O15530); experiment: Test for the inhibition of PDK1 (flashplate, 33P-ATP); assay type: biochemical
Chain of PDK1 (O15530 51-556): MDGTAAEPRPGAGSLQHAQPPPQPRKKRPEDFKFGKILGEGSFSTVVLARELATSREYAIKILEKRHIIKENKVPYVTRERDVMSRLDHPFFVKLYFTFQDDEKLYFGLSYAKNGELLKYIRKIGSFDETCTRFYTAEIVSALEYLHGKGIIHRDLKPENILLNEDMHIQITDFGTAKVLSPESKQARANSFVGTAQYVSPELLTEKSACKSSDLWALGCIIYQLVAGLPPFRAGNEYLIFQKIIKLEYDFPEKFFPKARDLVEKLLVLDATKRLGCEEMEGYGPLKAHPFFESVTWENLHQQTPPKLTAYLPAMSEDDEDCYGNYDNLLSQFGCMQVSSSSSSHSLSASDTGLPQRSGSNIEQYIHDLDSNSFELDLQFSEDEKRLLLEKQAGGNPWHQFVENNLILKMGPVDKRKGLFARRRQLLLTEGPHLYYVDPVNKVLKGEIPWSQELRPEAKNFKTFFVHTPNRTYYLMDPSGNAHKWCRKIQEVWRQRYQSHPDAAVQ
Experimental: The experimental batches are carried out in a flashplate system with 384 wells/microtitration plate.
(400 nM), 4 μM ATP (with 0.2 μCi of ^33P-ATP/well) and the test substance in 50 μl of conventional experimental solution per well are incubated at 30° C. for 60 min. The test substances are employed in corresponding concentrations (if desired in a dilution series). The control is carried out without test substance. The reaction is stopped using standard methods and washed. The activity of the kinase is measured via the incorporated radioactivity in top count. In order to determine the non-specific kinase reaction (blank value), the experimental batches are carried out in the presence of 100 nM staurosporine.
The radioactivity (decompositions per minute) of the blank value (no use of test substance in the presence of staurosporine) is subtracted from all other radioactivity values. The controls (kinase activity without test substance) are set equal to 100 percent and all other radioactivity values (after subtracting the blank value) are expressed set in relation thereto (for example in % of the control).

IC50 (A2780) [nM] | IC50 (HCT 116) [nM] | IC50 (IKKε) [nM] | IC50 [1] [nM] | IC50 (PDK1) [nM] | SMILES | IC50 (TGF-beta) [nM]
1000 to 10000 | 1000 to 10000 |  |  |  | Nc1cc(-c2c[nH]c3ncccc23)c2ccccc2n1 [Compound A1, 4-(1H-pyrrolo[2,3-b]pyridin-3-yl)quinolin-2-ylamine] | 
1000 to 10000 | 1000 to 10000 |  |  |  | c1cnc2[nH]cc(-c3cnc4ncccn34)c2c1 [Compound A3, 3-(1H-pyrrolo[2,3-b]pyridin-3-yl)imidazo[1,2-a]pyrimidine] | 
1000 to 10000 | 1000 to 10000 |  |  |  | c1ccc2c(-c3c[nH]c4ncccc34)cnnc2c1 [Compound A4, 4-(1H-pyrrolo[2,3-b]pyridin-3-yl)cinnoline] | 1000 to 10000
1000 to 10000 | 1000 to 10000 | 1000 to 10000 | 1000 to 10000 |  | c1cc(-c2c[nH]c3ncccc23)c2ccncc2c1 [Compound A7, 5-(1H-pyrrolo[2,3-b]pyridin-3-yl)isoquinoline] | 0.5 to 1000
1000 to 10000 | 1000 to 10000 |  |  |  | Nc1nccc2c(-c3c[nH]c4ncccc34)cccc12 [Compound A11, 5-(1H-pyrrolo[2,3-b]pyridin-3-yl)isoquinolin-1-ylamine] | 1000 to 10000
10 to 1000 |  | 0.5 to 1000 | 0.5 to 1000 | 1000 to 10000 | Cn1cc(-c2cnc3[nH]cc(-c4cn(S(=O)(=O)c5ccccc5)c5cnccc45)c3c2)cn1 [Compound A14, 1-benzenesulfonyl-3-[5-(1-methyl-1H-pyrazol-4-yl)-1H-pyrrolo[2,3-b]pyridin-3-yl]-1H-pyrrolo[2,3-c]pyridine] | 
 |  |  |  |  | Cc1[nH]c2ncccc2c1-c1cccc2cnccc12 [Compound A15, 5-(2-methyl-1H-pyrrolo[2,3-b]pyridin-3-yl)isoquinoline] | 0.5 to 1000
 |  |  |  |  | c1cnc2[nH]cc(-c3nccc4cnccc34)c2c1 [Compound A16, 1-(1H-pyrrolo[2,3-b]pyridin-3-yl)-2,6-naphthyridine] | 0.5 to 1000
 |  |  |  |  | Cn1cc(-c2cccc3cnccc23)c2cccnc21 [Compound A17, 5-(1-methyl-1H-pyrrolo[2,3-b]pyridin-3-yl)isoquinoline] | 0.5 to 1000
 |  | 1000 to 10000 | 0.5 to 1000 | 1000 to 10000 | c1cnc2[nH]cc(-c3c[nH]c4cnccc34)c2c1 [Compound A18, 3-(1H-pyrrolo[2,3-b]pyridin-3-yl)-1H-pyrrolo[2,3-c]pyridine] | 1000 to 10000
 |  |  |  |  | Cn1cc(-c2c[nH]c3ncccc23)c2ccncc21 [Compound A19, 1-methyl-3-(1H-pyrrolo[2,3-b]pyridin-3-yl)-1H-pyrrolo[2,3-c]pyridine] | 1000 to 10000
10 to 1000 | 10 to 1000 | 0.5 to 1000 | 0.5 to 1000 | 0.5 to 1000 | Cn1cc(-c2cnc3[nH]cc(-c4c[nH]c5cnccc45)c3c2)cn1 [Compound A20, 3-[5-(1-methyl-1H-pyrazol-4-yl)-1H-pyrrolo[2,3-b]pyridin-3-yl]-1H-pyrrolo[2,3-c]pyridine] | 0.5 to 1000
10 to 1000 | 10 to 1000 |  |  |  | c1ccc(-c2cc3nccc(-c4c[nH]c5ncccc45)c3o2)cc1 [Compound A21, 2-phenyl-7-(1H-pyrrolo[2,3-b]pyridin-3-yl)furo[3,2-b]pyridine] | 
1000 to 10000 | 1000 to 10000 |  | 1000 to 10000 |  | Nc1ncc(-c2c[nH]c3ncccc23)c2ccncc12 [Compound A24, 4-(1H-pyrrolo[2,3-b]pyridin-3-yl)-2,7-naphthyridin-1-ylamine] | 0.5 to 1000
 |  |  |  |  | Cc1[nH]c2ncccc2c1-c1nccc2cnccc12 [Compound A28, 1-(2-methyl-1H-pyrrolo[2,3-b]pyridin-3-yl)-2,6-naphthyridine] | 0.5 to 1000
1000 to 10000 | 1000 to 10000 |  |  |  | Cn1cc(-c2c[nH]c3cnccc23)c2cccnc21 [Compound A29, 3-(1-methyl-1H-pyrrolo[2,3-b]pyridin-3-yl)-1H-pyrrolo[2,3-c]-pyridine] | 
1000 to 10000 | 1000 to 10000 |  |  |  | Cc1[nH]c2ncccc2c1-c1nccc2c(N)nccc12 [Compound A31, 5-(2-methyl-1H-pyrrolo[2,3-b]pyridin-3-yl)-2,6-naphthyridin-1-ylamine] | 0.5 to 1000
 | 1000 to 10000 |  |  |  | Nc1nccc2c(-c3c[nH]c4ncccc34)nccc12 [Compound A32, 5-(1H-pyrrolo[2,3-b]pyridin-3-yl)-2,6-naphthyridin-1-ylamine] | 0.5 to 1000
 |  | 0.5 to 1000 | 0.5 to 1000 | 0.5 to 1000 | Cn1cc(-c2cnc3[nH]cc(-c4cn(C)c5cnccc45)c3c2)cn1 [Compound A33, 1-methyl-3-[5-(1-methyl-1H-pyrazol-4-yl)-1H-pyrrolo[2,3-b]-pyridin-3-yl]-1H-pyrrolo[2,3-c]pyridine] | 0.5 to 1000

From patent publication US9725446B2, “7-azaindole derivatives” (MERCK PATENT GmbH, priority 2011, dated 2017)
